Five compounds from ChEMBL document CHEMBL1139186, “Design and evaluation of 'Linkerless' hydroxamic acids as selective HDAC8 inhibitors” (Bioorg Med Chem Lett, 2007) can be followed below.

By IC50 is commonly meant the concentration that inhibits the measured activity by half.

One test deals with Histone deacetylase 1 (Homo sapiens, UniProt Q13547). Kind of test: Inhibition of human HDAC1 by [3H]acetyl histone peptide assay.
The target of test [1] is T1, Protein deacetylase HDAC6 (Homo sapiens, UniProt Q9UBN7).
T1 sequence (Q9UBN7 whole entry): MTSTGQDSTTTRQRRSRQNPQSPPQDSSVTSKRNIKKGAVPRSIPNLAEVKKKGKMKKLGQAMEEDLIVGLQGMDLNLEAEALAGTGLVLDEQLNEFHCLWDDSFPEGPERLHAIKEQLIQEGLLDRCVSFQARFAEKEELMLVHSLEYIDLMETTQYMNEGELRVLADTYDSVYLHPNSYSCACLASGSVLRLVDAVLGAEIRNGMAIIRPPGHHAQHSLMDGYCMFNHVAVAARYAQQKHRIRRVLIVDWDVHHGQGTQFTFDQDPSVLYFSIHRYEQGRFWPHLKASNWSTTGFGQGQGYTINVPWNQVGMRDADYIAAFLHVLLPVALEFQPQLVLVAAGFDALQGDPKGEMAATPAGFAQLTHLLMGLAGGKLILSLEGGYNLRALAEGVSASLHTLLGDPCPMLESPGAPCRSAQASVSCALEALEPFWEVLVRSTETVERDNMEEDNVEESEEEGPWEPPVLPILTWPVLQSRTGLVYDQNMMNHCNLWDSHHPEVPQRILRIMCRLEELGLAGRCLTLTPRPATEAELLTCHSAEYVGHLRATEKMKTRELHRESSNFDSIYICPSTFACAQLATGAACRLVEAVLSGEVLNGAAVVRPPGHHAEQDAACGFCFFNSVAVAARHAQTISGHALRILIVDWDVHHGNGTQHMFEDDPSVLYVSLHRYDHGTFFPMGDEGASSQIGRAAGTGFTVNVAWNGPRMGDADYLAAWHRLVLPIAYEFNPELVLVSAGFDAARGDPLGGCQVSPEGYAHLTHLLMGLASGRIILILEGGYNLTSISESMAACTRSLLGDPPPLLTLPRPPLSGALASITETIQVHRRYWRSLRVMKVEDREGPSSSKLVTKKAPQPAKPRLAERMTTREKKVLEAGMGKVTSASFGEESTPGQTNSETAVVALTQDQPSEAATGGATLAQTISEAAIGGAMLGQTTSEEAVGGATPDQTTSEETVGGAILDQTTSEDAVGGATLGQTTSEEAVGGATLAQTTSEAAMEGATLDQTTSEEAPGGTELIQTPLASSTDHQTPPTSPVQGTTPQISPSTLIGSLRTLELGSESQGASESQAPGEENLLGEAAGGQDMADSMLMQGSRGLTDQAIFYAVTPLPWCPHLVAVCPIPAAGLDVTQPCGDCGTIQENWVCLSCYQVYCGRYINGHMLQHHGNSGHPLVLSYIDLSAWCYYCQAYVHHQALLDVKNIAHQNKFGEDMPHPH
As to the kind of experiment: Inhibition of human HDAC6 by [3H]acetyl histone peptide assay.

The target in a further test is T2, Histone deacetylase 8 (Homo sapiens, UniProt Q9BY41).
T2 sequence (Q9BY41 whole entry): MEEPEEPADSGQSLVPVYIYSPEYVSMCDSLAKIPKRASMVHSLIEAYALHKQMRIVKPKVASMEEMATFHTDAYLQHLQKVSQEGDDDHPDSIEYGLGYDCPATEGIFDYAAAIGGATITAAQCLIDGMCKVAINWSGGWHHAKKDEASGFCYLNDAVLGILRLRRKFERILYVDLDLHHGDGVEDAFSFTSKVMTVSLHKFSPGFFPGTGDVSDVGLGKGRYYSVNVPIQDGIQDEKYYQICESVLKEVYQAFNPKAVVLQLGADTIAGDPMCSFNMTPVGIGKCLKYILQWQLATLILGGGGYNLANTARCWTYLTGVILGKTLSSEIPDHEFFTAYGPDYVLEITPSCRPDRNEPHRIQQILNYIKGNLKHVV

For test [2], the system named is HeLa. As to the kind of experiment: Increase in lysine-acetylated tubulin levels in HeLa cells by Western blot. Type of test: functional, cell-based. The following applies: Homo sapiens. (In general: In western blotting, separated proteins are transferred to a membrane and probed.)
Test [3] deals with HeLa. Kind of test: Increase in lysine-acetylated histone H4 levels in HeLa cells by Western blot. Type of test: functional, cell-based. The following applies: Homo sapiens.
In test [4] the test system is HEK293. As to the kind of experiment: Increase in lysine-acetylated tubulin levels in HEK293 cells by Western blot. The test is classed as functional, cell-based. The following applies: Homo sapiens.
Test [5] relates to HEK293. As to the kind of experiment: Increase in lysine-acetylated histone H4 levels in HEK293 cells by Western blot. The test is classed as functional, cell-based. The following applies: Homo sapiens.

Activity calls are given as the source filed them. No cut-off for these calls is given here.

Histone deacetylase 1, sequence (Q13547 whole entry): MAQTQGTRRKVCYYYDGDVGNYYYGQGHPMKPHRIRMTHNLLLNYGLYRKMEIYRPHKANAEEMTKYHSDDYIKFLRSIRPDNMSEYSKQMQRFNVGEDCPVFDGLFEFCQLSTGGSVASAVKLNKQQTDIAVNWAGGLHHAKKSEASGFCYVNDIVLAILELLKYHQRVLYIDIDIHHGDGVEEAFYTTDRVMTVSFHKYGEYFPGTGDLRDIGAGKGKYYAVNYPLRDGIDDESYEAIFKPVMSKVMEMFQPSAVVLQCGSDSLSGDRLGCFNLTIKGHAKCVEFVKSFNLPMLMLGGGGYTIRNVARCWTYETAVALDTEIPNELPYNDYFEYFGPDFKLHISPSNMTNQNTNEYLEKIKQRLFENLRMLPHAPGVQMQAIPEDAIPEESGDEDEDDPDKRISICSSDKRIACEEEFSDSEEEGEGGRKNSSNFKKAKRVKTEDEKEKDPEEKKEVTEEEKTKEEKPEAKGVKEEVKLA
Description for Histone deacetylase 8: Inhibition of human HDAC8 by [3H]acetyl histone peptide assay

Consider `O=C(NO)c1cccc(-c2ccccc2)c1`, for which the IC50 was > 100 µM on Histone deacetylase 1, > 100 µM in test [1] and 20 µM on Histone deacetylase 8.

For `O=C(NO)c1cccc2ccccc12`, the IC50 on Histone deacetylase 1 is > 100 µM; in test [1], > 100 µM; at Histone deacetylase 8 it was 14 µM.

For `O=C(NO)c1ccc(-c2cccc3ccccc23)cc1`, the IC50 against Histone deacetylase 1 was > 100 µM; in test [1] it was 55 µM; against Histone deacetylase 8, 0.3 µM.

For the compound `O=C(NO)c1cccc(Oc2ccccc2)c1`, the 50% inhibitory concentration (IC50) on Histone deacetylase 8 came out at 6.6 µM.

As to `O=C(/C=C/c1cccc2ccccc12)NO`, the IC50 is > 100 µM at Histone deacetylase 1, 82 µM in test [1] and 0.7 µM on Histone deacetylase 8. Further, the outcome in the test on HeLa [2], with HeLa [3], with HEK293 [4] and with HEK293 [5] was Active.
